Experiments:
Format in all cases: cell-based
[1] = system: Bacillus stearothermophilus; assay: Premi Test microbial inhibition test, spiked chicken meat juice with thickening agent
Procedure: (§1) The samples were then examined using microbial inhibition test ampoules produced according to the methods described in EP 0005891 with the nutrients present in the agar. The said test is also known as Premi®Test (commercially available from DSM N.V., Delft, The Netherlands).
Fresh chicken breast meat of a negative chicken was obtained from a slaughterhouse (negative in the sense of the presence of antibiotics). To obtain meat fluid for further testing pieces of meat were heated for 10 minutes at 64° C. and gently sqeezed using a garlic press. Spiked samples were prepared by adding Amoxicillin (0, 5 and 10 ppb), Oxytetracycline (0, 75 and 100 ppb) or Sulphadiazine (0, 75 and 100 ppb) to the meat juice.
To a part of said samples the thickening agent methylcellulose (4000 c.p.i., Sigma) was added to a final concentration of 1.5%.
100 μl of each sample was added to the Premi®Test ampoules (in duplicate) following the procedure described in Example 1. However, since a thickening agent was added, the pre-incubation step was not required anymore. Also the heating of the samples for 10 minutes at 80° C. was not required for this specific sample.
In addition a similar experiment was executed. However, now samples containing 10 ppb of Amoxycillin or 200 ppb of Oxytetracycline were prepared and the thickening agent bovine albumine (Sigma) was added to a final concentration of 6%.

[2] = system: Bacillus stearothermophilus; assay: Premi Test microbial inhibition test, spiked bovine kidney pre-urine; conditions: part of sample with methylcellulose 1.5%, controls yellow after 185 minutes
Excerpt: Fresh kidneys of 7 negative (negative in the sense of the presence of antibiotics) cows were obtained from a slaughterhouse. To obtain samples for testing for the presence or absence of antimicrobial drug residues, the rosettes of the kidneys were divided into pieces. The pieces were gently squeezed using a garlic press to obtain pre-urine.
as §1
100 μl of each of the 7 squeezed samples (pre-urine) was added to the test ampoules and heated for 10 minutes at 80° C. in a waterbath, the ampoules were immediately placed in a waterbath of 64° C. and incubated following the instructions of the manufacturer.
The experiment was executed as described in Example 1. However now to a part of the pre-urine sample the thickening agent methylcellulose (4000 c.p.i., Sigma) was added to a final concentration of 1.5%. Also spiked samples were prepared following the method described in Example 6.

[3] = system: Bacillus stearothermophilus; assay: Delvotest microbial inhibition test, spiked egg samples; conditions: heated 10 minutes at 80° C., incubated at 64° C., read after 140 minutes
Procedure: A hole of approximately 1-2 cm2 was made in the egg, the egg yolk was pricked and the egg was placed with the hole down on a bottle allowing the egg white and egg yolk to drip into the bottle. After the egg had emptied, the bottle was closed and the sample was homogenized by shaking. To inactivate the natural inhibiting compounds present in the egg sample, 100 μl of each of the 5 samples was added on Delvotest® ampoules. The test was produced according to the methods described in EP 0005891 with the nutrients present in the agar. After heating for 10 minutes at 80° C. in a waterbath, the ampoules were immediately placed in a waterbath at 64° C. and incubated following the instructions of the producer. […] Egg samples were obtained according to the method described in Example 3. The samples were spiked by adding Penicillin G (0 and 4 ppb) or Sulphadiazine (0 and 100 ppb). The egg samples were added to Delvotest® ampoules (see Example 3) according to the method described in this invention: heated for 10 minutes at 80° C., and then, immediately placed in a waterbath at 64° C. and incubated following the instructions of the manufacturer.

[4] = system: Bacillus stearothermophilus; assay: Microbial inhibition test ampoules (EP 0005891), spiked raw milk; conditions: with or without bovine albumine 6% or heating 10 minutes at 80° C., controls yellow after 160-185 minutes
Procedure: Raw milk samples of negative cows were obtained from a farmer (negative in the sense of the presence of antibiotics). Spiked samples were prepared by adding Penicillin G to the milk (0, 4 and 6 ppb). To a part of said samples the thickening agent bovine albumine (Sigma) was added to a final concentration of 6%. The samples were then examined using microbial inhibition test ampoules produced according to the method described in EP 0005891 with the nutrients in the agar. 100 μl of milk was added to the test ampoules. A part of the test ampoules with the raw milk sample was heated for 10 minutes at 80° C. as described in Example 1. All experiments were executed in five fold. The tests were further incubated following the methods described in Example 1.

## CC1(C)S[C@@H]2[C@H](NC(=O)[C@H](N)c3ccc(O)cc3)C(=O)N2[C@H]1C(=O)O [Amoxicillin]
[1]; chicken meat juice spiked with 5 ppb, part of samples with methylcellulose 1.5%, after 160 minutes
  test colour / result (purple = positive): remained purple (positive)
[1]; chicken meat juice spiked with 10 ppb, bovine albumine 6%, after 165 minutes
  test colour / result (purple = positive): remained purple
[1]; chicken meat juice spiked with 10 ppb, part of samples with methylcellulose 1.5%, after 160 minutes
  test colour / result (purple = positive): remained purple (positive)
[2]; pre-urine spiked with 5 ppb
  test colour / result (purple = positive): remained purple (positive)
[2]; pre-urine spiked with 10 ppb
  test colour / result (purple = positive): remained purple (positive)

## Nc1ccc(S(=O)(=O)Nc2ncccn2)cc1 [Sulphadiazine]
[3]; egg sample spiked with 100 ppb
  test colour / result (purple = positive, growth of test organism inhibited): remained purple (positive)
[1]; chicken meat juice spiked with 75 ppb, part of samples with methylcellulose 1.5%, after 160 minutes
  test colour / result (purple = positive): remained purple (positive)
[1]; chicken meat juice spiked with 100 ppb, part of samples with methylcellulose 1.5%, after 160 minutes
  test colour / result (purple = positive): remained purple (positive)
[2]; pre-urine spiked with 75 ppb
  test colour / result (purple = positive): remained purple (positive)
[2]; pre-urine spiked with 100 ppb
  test colour / result (purple = positive): remained purple (positive)

## CC1(C)S[C@@H]2[C@H](NC(=O)Cc3ccccc3)C(=O)N2[C@H]1C(=O)O [Penicillin G]
[3]; egg sample spiked with 4 ppb
  test colour / result (purple = positive, growth of test organism inhibited): remained purple (positive)
[4]; raw milk spiked with 4 ppb
  test colour / result (purple = positive): remained purple (positive)
[4]; raw milk spiked with 6 ppb
  test colour / result (purple = positive): remained purple (positive)
